We go through three compounds from US20230044979A1, “ANIMAL CELL CULTURING METHOD” (AJINOMOTO CO., INC., priority 2020, published 2023).

Series [1] relates to CHO cells modified to produce a monoclonal antibody. The series is described as follows: Effect of addition of L-cysteine derivatives to basal medium on proliferation of CHO cells. The series is classed as cell-based, Chinese hamster. To be noted: for proliferation of cells (viable cell count): 1.3 mM in basal medium otherwise without L-cysteine, day 7 of culture, FIG. 1; for use as an alternative for L-cysteine in the basal medium: 1.3 mM in basal medium. The protocol:
In this Example, an effect of addition of L-cysteine derivatives to a basal medium on proliferation of CHO cells was evaluated. As the L-cysteine derivatives, (2RS,4R)-2-methyl-2,4-thiazolidinedicarboxylic acid 2-ethyl ester (hereinafter, also referred to as “Compound 1”) and (2RS,4R)-2-methyl-2,4-thiazolidinedicarboxylic acid (hereinafter, also referred to as “Compound 2”) were used. As the CHO cells, CHO cells modified to produce a monoclonal antibody were used.
CELLiST (registered trademark) Basal media (Ajinomoto Co., Ltd.: BASAL3) without L-cysteine was prepared, to obtain a culture medium without addition of L-cysteine. The culture medium without addition of L-cysteine was added with L-cysteine, Compound 1, or Compound 2, to prepare a culture medium containing 1.3 mM L-cysteine, 1.3 mM Compound 1, or 1.3 mM Compound 2. Each culture medium was added with LR3-IGF-1 (SIGMA-ALDRICH: I1271-1MG, final concentration of 50 μg/mL) and L-Glutamine (Thermo Fisher SCIENTIFIC: 25030081, final concentration of 6 mM), to prepare a basal medium.
A 3 mL-aliquot of a CHO cell suspension adjusted to 3×10^5 cells/mL using the prepared basal medium was seeded into a 6 well plate (CORNING: 3471), and cultured for 11 days. The culture was carried out with n=3 for all experimental groups. The culture temperature was 37° C. and the agitation speed was 110 rpm. A cell culture broth was sampled on days 7 and 11 from the start of the culture, and the viable cell count was measured using a viable/dead cells autoanalyzer Vi-CELL™ XR (Beckman Coulter).

Series [2] can be described thus: Stability of L-cysteine derivatives in feed medium (crystal precipitation by visual observation). It is filed as physicochemical. To be noted: for crystal precipitation, Days 0 / crystal precipitation, Days 1 / crystal precipitation, Days 7 / crystal precipitation, Days 22 / crystal precipitation, Days 30: stored at 5° C. in the dark; for crystal precipitation, Days 0: day 0; for crystal precipitation, Days 1: day 1; for crystal precipitation, Days 7: day 7; for crystal precipitation, Days 22: day 22; for crystal precipitation, Days 30: day 30. The protocol:
In this Example, the stability of L-cysteine derivatives in a feed medium was evaluated. As the L-cysteine derivatives, Compounds 1 and 2 were used.
A feed medium containing 82 g/L Cellvento (registered trademark) Feed-210 (Merck: 1.02488.0005), 70 g/L glucose (Wako Pure Chemical Industries, Ltd.: 043-31163), and 58 mM L-cysteine, 58 mM Compound 1, or 58 mM Compound 2, and a feed medium without addition of L-cysteine, which only contained 82 g/L Cellvento (registered trademark) Feed-210 and 70 g/L glucose were prepared at pH 5.2 to 5.6, which are described in the instruction of Feed-210, and at pH 7.0, which is a neutral pH condition used for usual cultivation, to obtain 8 kinds of feed media in total. All of the feed media were prepared as transparent solutions.
After each of the feed media was stored at 5° C. in the dark, crystal precipitation was confirmed by visual observation. […] In the table, “+” to “++++” indicate that crystal precipitation was observed, and the higher the number of “+”, the greater the degree of precipitation. Under the addition condition, significant precipitation was observed from one week after the start of storage. Under the condition of adding Compound 2, precipitation was observed from 22 days after the start of storage.

Series [3] can be described thus: Stability of L-cysteine derivatives in buffer solution (crystal precipitation by visual observation). It is filed as physicochemical. To be noted: 58 mM in PBS buffer pH 7.0 to 7.2; for crystal precipitation, Days 0 / crystal precipitation, Days 3 / crystal precipitation, Days 7 / crystal precipitation, Days 14 / crystal precipitation, Days 21 / crystal precipitation, Days 24: stored at 5° C. in the dark; for crystal precipitation, Days 0: day 0; for crystal precipitation, Days 3: day 3; for crystal precipitation, Days 7: day 7; for crystal precipitation, Days 14: day 14; for crystal precipitation, Days 21: day 21; for crystal precipitation, Days 24: day 24. As for the experimental part:
In this Example, the stability of L-cysteine derivatives in a buffer solution was evaluated.
In the table, “+” to “++++” indicate that crystal precipitation was observed, and the higher the number of “+”, the greater the degree of precipitation.

Series [4] concerns CHO cells modified to produce a monoclonal antibody. The series can be described thus: Effect of addition of L-cysteine derivatives to feed medium on proliferation of CHO cells and antibody production (1). It is filed as cell-based, Chinese hamster. Conditions: for antibody production amount: 14.5, 29 or 58 mM in feed medium, fed on days 4, 7, 9, 11, 14 days culture, FIG. 3. The protocol:
In this Example, an effect of addition of L-cysteine derivatives to a feed medium on proliferation of CHO cells and antibody production was evaluated. As the L-cysteine derivatives, Compounds 1 and 2 were used. As the CHO cells, CHO cells modified to produce a monoclonal antibody were used.
CELLiST (registered trademark) Basal media (Ajinomoto Co., Ltd.: BASAL3; containing 1.3 mM L-cysteine) was added with LR3-IGF-1 (SIGMA-ALDRICH: I1271-1MG, final concentration of 50 μg/mL) and L-Glutamine (Thermo Fisher SCIENTIFIC: 25030081, final concentration of 6 mM), to prepare a basal medium.
Feed media (9 kinds in total) each containing 82 g/L Cellvento (registered trademark) Feed-210 (Merck: 1.02488.0005), 70 g/L glucose (Wako Pure Chemical Industries, Ltd.: 043-31163), and L-cysteine, Compound 1, or Compound 2 each at 14.5 mM, 29 mM, or 58 mM were prepared. In addition, a feed medium without addition of L-cysteine, which only contained 82 g/L Cellvento (registered trademark) Feed-210 and 70 g/L glucose, was prepared. Separately, a tyrosine concentrate (L-tyrosine disodium salt dihydrate (Merck: 122666-87-9) 149.64 g/L, pH 11.3) was prepared.
A 30 mL-aliquot of a CHO cell suspension adjusted to 3×10^5 cells/mL using the prepared basal medium was seeded into 125 mL-volume flasks (CORNING: 431143), and cultured for 14 days. The culture was carried out with n=2 for all experimental groups. The culture temperature was 37° C. and the agitation speed was 110 rpm. A 1.8 mL-aliquot of each of the prepared feed media and a 60 μL-aliquot of the tyrosine concentrate were added on days 4, 7, 9, and 11 from the start of the culture. A cell culture broth was sampled on days 4, 7, 9, 11, and 14 from the start of the culture, and the viable cell count was measured using a viable/dead cells autoanalyzer Vi-CELL™ XR (Beckman Coulter), and the antibody production amount was measured using Octet QK (FORTEBIO).

Setting [5] is: 58 mM in feed medium pH 5.2 to 5.6.
The mark [6] stands for this setting: 58 mM in feed medium, 5° C. in the dark.

For `Cl.N[C@@H](CS)C(=O)O.O` [L-cysteine, L-cysteine hydrochloride monohydrate], the “proliferation of cells (viable cell count)” value (“proliferation of cells” for short) in series [1] is listed as “Proliferation of cells was observed”. Further, in series [2] (setting [5]), the “crystal precipitation, Days 0” value was “−”; the “crystal precipitation, Days 1” value is reported as “−”; the “crystal precipitation, Days 7” value was “+++”; the “crystal precipitation, Days 22” value is “+++”. In addition, the “crystal precipitation, Days 30” value in series [2] (setting [5]) is reported as “+++”. Besides, in series [2] (58 mM in feed medium pH 7), the “crystal precipitation, Days 0” value is on record as “−”; the “crystal precipitation, Days 1” value is given as “−”; the “crystal precipitation, Days 7” value was “+++”; the “crystal precipitation, Days 22” value is given as “+++”. For the same compound, the “crystal precipitation, Days 30” value in series [2] (58 mM in feed medium pH 7) is on record as “+++”. Further, in series [3] (5° C. in the dark), the “significant precipitation observed from (after the start of storage)” value came to 3 days. Further, in series [3], the “crystal precipitation, Days 0” value is recorded as “−”; the “crystal precipitation, Days 3” value is listed as “++”; the “crystal precipitation, Days 7” value was “+++”; the “crystal precipitation, Days 14” value is on record as “+++”. In series [3], the “crystal precipitation, Days 21” value is recorded as “+++” and the “crystal precipitation, Days 24” value was “+++”.

`CC1(C(=O)O)N[C@H](C(=O)O)CS1` (mixture of isomers) [Compound 2, (2RS,4R)-2-methyl-2,4-thiazolidinedicarboxylic acid]: in series [1], the “use as an alternative for L-cysteine in the basal medium” value was “able to be used as an alternative for L-cysteine” and the “proliferation of cells” value is on record as “almost equivalent to that of the experimental group using L-cysteine”. For the same compound, in series [4], the antibody production amount entry is given as “almost equivalent to that of the experimental group of L-cysteine”. In series [2] (setting [5]), the “crystal precipitation, Days 0” value was “−”; the “crystal precipitation, Days 1” value is reported as “−”; the “crystal precipitation, Days 7” value is recorded as “−”; the “crystal precipitation, Days 22” value is reported as “+”. Moreover, in series [2] (setting [5]), the “crystal precipitation, Days 30” value is on record as “+++”. In addition, in series [2] (58 mM in feed medium pH 7), the “crystal precipitation, Days 0” value is listed as “−”; the “crystal precipitation, Days 1” value was “−”; the “crystal precipitation, Days 7” value is recorded as “−”; the “crystal precipitation, Days 22” value is listed as “++”. In series [2] (58 mM in feed medium pH 7), the “crystal precipitation, Days 30” value is given as “+++”. Also, in series [2] (setting [6]), the “precipitation observed from (after the start of storage)” value is 22 days. The “relative stability compared with L-cysteine” value in series [3] (5° C. in the dark) was “more stable than L-cysteine”. Besides, in series [3], the “crystal precipitation, Days 0” value is “−”; the “crystal precipitation, Days 3” value is on record as “−”; the “crystal precipitation, Days 7” value is on record as “−”; the “crystal precipitation, Days 14” value is “−”. Besides, in series [3], the “crystal precipitation, Days 21” value is given as “−” and the “crystal precipitation, Days 24” value is “−”.

Take `CCOC(=O)C1(C)N[C@H](C(=O)O)CS1` (mixture of isomers) [Compound 1, (2RS,4R)-2-methyl-2,4-thiazolidinedicarboxylic acid 2-ethyl ester]: in series [1], the “use as an alternative for L-cysteine in the basal medium” value is given as “unable to substitute the whole of L-cysteine in the basal medium” and the “proliferation of cells” value is “no proliferation of cells was observed”. Further, the antibody production amount entry in series [4] is given as “almost equivalent to that of the experimental group of L-cysteine”. The “use as an alternative for L-cysteine in the feed medium” value in series [4] (in feed medium, basal medium containing 1.3 mM L-cysteine) was “able to be used as an alternative for L-cysteine in the feed medium”. In series [2] (setting [5]), the “crystal precipitation, Days 0” value was “−”; the “crystal precipitation, Days 1” value is “−”; the “crystal precipitation, Days 7” value is “−”; the “crystal precipitation, Days 22” value is given as “−”. For the same compound, in series [2] (setting [5]), the “crystal precipitation, Days 30” value is given as “−”. In addition, in series [2] (58 mM in feed medium pH 7), the “crystal precipitation, Days 0” value is recorded as “−”; the “crystal precipitation, Days 1” value is recorded as “−”; the “crystal precipitation, Days 7” value is “−”; the “crystal precipitation, Days 22” value is “−”. Besides, the “crystal precipitation, Days 30” value in series [2] (58 mM in feed medium pH 7) is on record as “−”. In addition, the “relative stability in the culture medium” value in series [2] (setting [6]) is “more stable than Compound 2”. The “crystal precipitation on storage, in words” value in series [2] (58 mM in feed medium, 5° C. in the dark, up to 30 days after the start of storage) is “no crystal precipitation was observed”. The “relative stability compared with L-cysteine” value in series [3] (5° C. in the dark) was “more stable than L-cysteine”. In addition, in series [3], the “crystal precipitation, Days 0” value is reported as “−”; the “crystal precipitation, Days 3” value is given as “−”; the “crystal precipitation, Days 7” value was “−”; the “crystal precipitation, Days 14” value is “−”. In addition, in series [3], the “crystal precipitation, Days 21” value is reported as “−” and the “crystal precipitation, Days 24” value was “−”.
